Measurements from PubChem BioAssay AID1963968 (Molecular Pharmacology Branch, DTP, NCI, 2024).

Tested on: 945468-187-T-J3-PDC spheroids with HUVEC/MSC, viability
Assay: Anticancer human tumor 945468-187-T-J3-PDC patient-derived rectal carcinoma cell line growth inhibition [PI3K]
Conditions: for IC50: curve of first compound; for viability, T/C: stronger effect = lower value
Procedure, shortened: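 Tumor cells were combined with HUVEC and MSCs into spheroids, then dosed with PI3K-inhibitor combinations over half-log ranges capped near clinical Cmax or 10 microM.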

[1] = second compound 0.00316 µM, first compound 0.000316 µM
[2] = second compound 0.00316 µM, first compound 0.001 µM
[3] = second compound 0.00316 µM, first compound 0.00316 µM
[4] = second compound 0.00316 µM, first compound 0.01 µM
[5] = second compound 0.00316 µM, first compound 0.0316 µM
[6] = second compound 0.00316 µM, first compound 0.1 µM
[7] = second compound 0.01 µM, first compound 0.000316 µM
[8] = second compound 0.01 µM, first compound 0.001 µM
[9] = second compound 0.01 µM, first compound 0.00316 µM
[10] = second compound 0.01 µM, first compound 0.01 µM
[11] = second compound 0.01 µM, first compound 0.0316 µM
[12] = second compound 0.01 µM, first compound 0.1 µM
[13] = second compound 0.0316 µM, first compound 0.000316 µM
[14] = second compound 0.0316 µM, first compound 0.001 µM
[15] = second compound 0.0316 µM, first compound 0.00316 µM
[16] = second compound 0.0316 µM, first compound 0.01 µM
[17] = second compound 0.0316 µM, first compound 0.0316 µM
[18] = second compound 0.0316 µM, first compound 0.1 µM
[19] = second compound 0.1 µM, first compound 0.000316 µM
[20] = second compound 0.1 µM, first compound 0.001 µM
[21] = second compound 0.1 µM, first compound 0.00316 µM
[22] = second compound 0.1 µM, first compound 0.01 µM
[23] = second compound 0.1 µM, first compound 0.0316 µM
[24] = second compound 0.1 µM, first compound 0.1 µM
[25] = second compound 0.316 µM, first compound 0.000316 µM
[26] = second compound 0.316 µM, first compound 0.001 µM
[27] = second compound 0.316 µM, first compound 0.00316 µM
[28] = second compound 0.316 µM, first compound 0.01 µM
[29] = second compound 0.316 µM, first compound 0.0316 µM
[30] = second compound 0.316 µM, first compound 0.1 µM
[31] = second compound 1 µM, first compound 0.000316 µM
[32] = second compound 1 µM, first compound 0.001 µM
[33] = second compound 1 µM, first compound 0.00316 µM
[34] = second compound 1 µM, first compound 0.01 µM
[35] = second compound 1 µM, first compound 0.0316 µM
[36] = second compound 1 µM, first compound 0.1 µM
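Also: spheroids exposed to agents for 7 days before viability read.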
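For viability, T/C in this document: 100% = DMSO vehicle control viability.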

CC(=O)c1c(C)c2cnc(Nc3ccc(N4CCNCC4)cn3)nc2n(C2CCCC2)c1=O + COc1c(OCCCN2CCOCC2)ccc2c3n(c(=NC(=O)c4cnc(N)nc4)nc12)CCN3
IC50 (second compound 0.00316 µM): > 100 nM
IC50 (second compound 0.01 µM): > 100 nM
IC50 (second compound 0.0316 µM): > 100 nM
IC50 (second compound 0.1 µM): < 0.316 nM
IC50 (second compound 0.316 µM): < 0.316 nM
IC50 (second compound 1 µM): < 0.316 nM
viability, T/C [1]: 99%
viability, T/C [2]: 106%
viability, T/C [3]: 118%
viability, T/C [4]: 92.3%
viability, T/C [5]: 103%
viability, T/C [6]: 101%
viability, T/C [7]: 92.4%
viability, T/C [8]: 87.1%
viability, T/C [9]: 90.3%
viability, T/C [10]: 97.5%
viability, T/C [11]: 95.7%
viability, T/C [12]: 104%
viability, T/C [13]: 82.9%
viability, T/C [14]: 90.3%
viability, T/C [15]: 89.9%
viability, T/C [16]: 85.2%
viability, T/C [17]: 89%
viability, T/C [18]: 74.8%
viability, T/C [19]: 43.1%
viability, T/C [20]: 48.6%
viability, T/C [21]: 48.7%
viability, T/C [22]: 37.6%
viability, T/C [23]: 37.9%
viability, T/C [24]: 32.5%
viability, T/C [25]: 23%
viability, T/C [26]: 20.6%
viability, T/C [27]: 20%
viability, T/C [28]: 19.2%
viability, T/C [29]: 19.6%
viability, T/C [30]: 17.6%
viability, T/C [31]: 16%
viability, T/C [32]: 17.7%
viability, T/C [33]: 16.7%
viability, T/C [34]: 16.2%
viability, T/C [35]: 13.6%
viability, T/C [36]: 14.1%

CC(C)n1nc(-c2ccc3oc(N)nc3c2)c2c(N)ncnc21 + COc1c(OCCCN2CCOCC2)ccc2c3n(c(=NC(=O)c4cnc(N)nc4)nc12)CCN3
IC50 (second compound 0.00316 µM): 76.1 nM
IC50 (second compound 0.01 µM): 62.6 nM
IC50 (second compound 0.0316 µM): 25.6 nM
IC50 (second compound 0.1 µM): < 0.316 nM
IC50 (second compound 0.316 µM): < 0.316 nM
IC50 (second compound 1 µM): < 0.316 nM
viability, T/C [1]: 104%
viability, T/C [2]: 85.7%
viability, T/C [3]: 95.1%
viability, T/C [4]: 78.7%
viability, T/C [5]: 92.8%
viability, T/C [6]: 37.2%
viability, T/C [7]: 97.2%
viability, T/C [8]: 81.2%
viability, T/C [9]: 93.9%
viability, T/C [10]: 86.2%
viability, T/C [11]: 90.4%
viability, T/C [12]: 22.7%
viability, T/C [13]: 88.7%
viability, T/C [14]: 77.2%
viability, T/C [15]: 85%
viability, T/C [16]: 78.4%
viability, T/C [17]: 43.6%
viability, T/C [18]: 17.1%
viability, T/C [19]: 46%
viability, T/C [20]: 34%
viability, T/C [21]: 33.9%
viability, T/C [22]: 26.2%
viability, T/C [23]: 20.2%
viability, T/C [24]: 13.6%
viability, T/C [25]: 20.6%
viability, T/C [26]: 21.3%
viability, T/C [27]: 21.6%
viability, T/C [28]: 17.6%
viability, T/C [29]: 16.6%
viability, T/C [30]: 13.7%
viability, T/C [31]: 18.5%
viability, T/C [32]: 15.9%
viability, T/C [33]: 14.1%
viability, T/C [34]: 13.2%
viability, T/C [35]: 12.6%
viability, T/C [36]: 10.5%
